Test results: patent US9085561B2, “Cyclic urea- or lactam-substituted quinoxaline-type piperidines as ORL-1 modulators” (priority 2012, dated 2015)

These compounds were tested against human CYP2D6 (Homo sapiens, UniProt P10635) (assay: Cytochrome P450 2D6 inhibition (dextromethorphan O-demethylation, pooled human hepatic microsome)).
Sequence of human CYP2D6 (P10635 whole entry): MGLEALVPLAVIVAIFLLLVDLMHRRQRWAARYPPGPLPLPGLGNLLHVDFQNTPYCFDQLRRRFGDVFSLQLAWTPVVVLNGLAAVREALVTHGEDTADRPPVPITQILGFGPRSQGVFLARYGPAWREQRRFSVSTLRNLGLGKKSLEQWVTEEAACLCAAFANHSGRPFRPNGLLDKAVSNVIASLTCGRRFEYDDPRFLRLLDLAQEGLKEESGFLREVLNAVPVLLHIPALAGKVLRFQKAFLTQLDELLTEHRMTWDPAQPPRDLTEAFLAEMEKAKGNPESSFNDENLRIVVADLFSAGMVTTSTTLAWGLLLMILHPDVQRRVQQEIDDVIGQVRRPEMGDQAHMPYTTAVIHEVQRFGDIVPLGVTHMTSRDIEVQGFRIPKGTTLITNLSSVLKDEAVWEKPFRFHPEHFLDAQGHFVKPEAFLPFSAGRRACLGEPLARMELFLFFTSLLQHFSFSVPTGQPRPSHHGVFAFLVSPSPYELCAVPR

`Nc1nc(=O)n(-c2nc3ccccc3n([C@H]3C[C@H]4CCC[C@@H](C3)N4[C@H]3C[C@@H]4CCC[C@@H](C4)C3)c2=O)cc1F` [B7a(i), 1-((1R,1′R,3r,3′R,5S,5′S)-[3,9′-bi(9′-azabicyclo[3.3.1]nonan)]-3′-yl)-3-(4-amino-5-fluoro-2-oxopyrimidin-1(2H)-yl)quinoxalin-2(1H)-one] and `Nc1nc(=O)n(-c2nc3ccccc3n([C@H]3C[C@H]4CCC[C@@H](C3)N4[C@@H]3C[C@@H]4CCCC[C@@H](C4)C3)c2=O)cc1F` [Compound U067] cannot be ordered by IC50: greater than 20 µM for the first, greater than 20 µM for the second.

`O=C(O)Cn1c(-c2nc3ccccc3n([C@H]3C[C@H]4CCC[C@@H](C3)N4C3CCCCCCCCC3)c2=O)cccc1=O` [BB1c(iii), 2-(6-(4-((1R,3r,5S)-9-cyclodecyl-9-azabicyclo[3.3.1]nonan-3-yl)-3-oxo-3,4-dihydroquinoxalin-2-yl)-2-oxopyridin-1(2H)-yl)acetic acid] and `O=C(O)Cn1c(-c2nc3ccccc3n([C@H]3C[C@H]4CCC[C@@H](C3)N4[C@@H]3C[C@@H]4CCCC[C@@H](C4)C3)c2=O)cccc1=O` [EE1b(iii), 2-(6-(4-((1R,3R,5S)-9-((1R,6S,8s)-bicyclo[4.3.1]decan-8-yl)-9-azabicyclo[3.3.1]nonan-3-yl)-3-oxo-3,4-dihydroquinoxalin-2-yl)-2-oxopyridin-1(2H)-yl)acetic acid] cannot be ordered by IC50: greater than 20 µM for the first, greater than 20 µM for the second.

`O=c1c(N2CCNCC2)nc2ccccc2n1C1CCN(C2CCCCCCC2)CC1` [CC10, reference compound] and `O=C1CN(c2nc3ccccc3n(C3CCN(C4CCCCCCC4)CC3)c2=O)CCN1` [CC18, reference compound] cannot be ordered by IC50: less than 1 µM for the first, less than 1 µM for the second.

First: NC1CCN(c2nc3ccccc3n(C3CCN(C4CCCCCCC4)CC3)c2=O)CC1 [CC22, reference compound]
Second: N[C@H]1CCN(c2nc3ccccc3n(C3CCN(C4CCCCCCC4)CC3)c2=O)C1 [CC39, reference compound]
The IC50 of the first is higher: 1 µM for the first, less than 1 µM for the second.

`N[C@@H]1CCN(c2nc3ccccc3n(C3CCN(C4CCCCCCC4)CC3)c2=O)C1` [CC51, reference compound] and `N[C@@H]1CCN(c2nc3ccccc3n([C@H]3C[C@H]4CC[C@@H](C3)N4C3CCCCCCC3)c2=O)C1` [CC101, reference compound] cannot be ordered by IC50: less than 1 µM for the first, less than 1 µM for the second.

Going from `O=C1CCN(c2nc3ccccc3n(C3CCN(C4CCCCCCC4)CC3)c2=O)N1` [CC119, reference compound] to `O=C(O)CN1CCN(c2nc3ccccc3n([C@H]3C[C@H]4CC[C@@H](C3)N4C3CCCCCCC3)c2=O)CC1` [CC337, reference compound], the IC50 falls from greater than 20 µM to 13 µM. The second is the more potent here.

`O=c1[nH]c(=O)n(-c2nc3ccccc3n([C@H]3C[C@H]4CCC[C@@H](C3)N4[C@H]3C[C@@H]4CCC[C@@H](C4)C3)c2=O)cc1Br` [Compound B16a, 1-(4-((1R,1′R,3r,3R,5S,5′S)-[3,9′-bi(9′-azabicyclo[3.3.1]nonan)]-3′-yl)-3-oxo-3,4-dihydroquinoxalin-2-yl)-5-bromopyrimidine-2,4(1H,3H)-dione] and `Cc1cc(=O)[nH]c(=O)n1-c1nc2ccccc2n([C@H]2C[C@H]3CCC[C@@H](C2)N3[C@H]2C[C@@H]3CCC[C@@H](C3)C2)c1=O` [Compound U065, 1-(4-((1R,1R,3r,3′R,5S,5′S)-[3,9′-bi(9′-azabicyclo[3.3.1]nonan)]-3′-yl)-3-oxo-3,4-dihydroquinoxalin-2-yl)-6-methylpyrimidine-2,4(1H,3H)-dione] cannot be ordered by IC50: greater than 20 µM for the first, greater than 20 µM for the second.

`C[C@@H]1C[C@@H]2C[C@H](C1)C[C@@H](N1[C@@H]3CCC[C@H]1C[C@@H](n1c(=O)c(-n4ncc(=O)[nH]c4=O)nc4ccccc41)C3)C2` [Compound B34a, 2-(4-((1R,1′R,3r,3′R,5S,5′S,7S)-7-methyl-[3,9′-bi(9′-azabicyclo[3.3.1]nonan)]-3′-yl)-3-oxo-3,4-dihydroquinoxalin-2-yl)-1,2,4-triazine-3,5(2H,4H)-dione] and `O=c1cnn(-c2nc3ccccc3n([C@H]3C[C@H]4CC[C@@H](C3)N4[C@@H]3C[C@@H]4CCCC[C@@H](C4)C3)c2=O)c(=O)[nH]1` [Compound N9b, 2-(4-((1R,3R,5S)-8-((1R,6S,8s)-bicyclo[4.3.1]decan-8-yl)-8-azabicyclo[3.2.1]octan-3-yl)-3-oxo-3,4-dihydroquinoxalin-2-yl)-1,2,4-triazine-3,5(2H,4H)-dione] cannot be ordered by IC50: greater than 20 µM for the first, greater than 20 µM for the second.

`C[C@@H]1C[C@@H]2C[C@H](C1)C[C@@H](N1[C@@H]3CCC[C@H]1C[C@@H](n1c(=O)c(N4C(=O)NC(C)(C)C4=O)nc4ccccc41)C3)C2` [Compound B47a] and `CC1(C)NC(=O)N(c2nc3ccccc3n([C@H]3C[C@H]4CCC[C@@H](C3)N4[C@@H]3C[C@@H]4CCCC[C@@H](C4)C3)c2=O)C1=O` [Compound O22b, 3-(4-((1R,3R,5S)-9-((1R,6S,8s)-bicyclo[4.3.1]decan-8-yl)-9-azabicyclo[3.3.1]nonan-3-yl)-3-oxo-3,4-dihydroquinoxalin-2-yl)-5,5-dimethylimidazolidine-2,4-dione] cannot be ordered by IC50: greater than 20 µM for the first, greater than 20 µM for the second.

`Cc1nn(-c2nc3ccccc3n([C@H]3C[C@H]4CCC[C@@H](C3)N4[C@@H]3C[C@@H]4CCCC[C@@H](C4)C3)c2=O)c(=O)[nH]c1=O` [Compound O10b, 2-(4-((1R,3R,5 S)-9-((1R,6S,8s)-bicyclo[4.3.1]decan-8-yl)-9-azabicyclo[3.3.1]nonan-3-yl)-3-oxo-3,4-dihydroquinoxalin-2-yl)-6-methyl-1,2,4-triazine-3,5(2H,4H)-dione] and `O=c1[nH]nc(-c2nc3ccccc3n([C@H]3C[C@H]4CCC[C@@H](C3)N4[C@@H]3C[C@@H]4CCCC[C@@H](C4)C3)c2=O)[nH]1` [EE6b(i)(i), 1-((1R,3R,5S)-9-((1R,6S,8s)-bicyclo[4.3.1]decan-8-yl)-9-azabicyclo[3.3.1]nonan-3-yl)-3-(5-oxo-4,5-dihydro-1H-1,2,4-triazol-3-yl)quinoxalin-2(1H)-one] cannot be ordered by IC50: greater than 20 µM for the first, greater than 20 µM for the second.

`O=C(O)Cn1cc(-c2nc3ccccc3n([C@H]3C[C@H]4CCC[C@@H](C3)N4[C@H]3C[C@@H]4CCC[C@@H](C4)C3)c2=O)ccc1=O` [Compound U007, 2-(5-(4-((1R,1′R,3r,3′R,5S,5′S)-[3,9′-bi(9′-azabicyclo[3.3.1]nonan)]-3′-yl)-3-oxo-3,4-dihydroquinoxalin-2-yl)-2-oxopyridin-1(2H)-yl)acetic acid] and `O=C(O)Cn1ccc(-c2nc3ccccc3n([C@H]3C[C@H]4CCC[C@@H](C3)N4[C@H]3C[C@@H]4CCC[C@@H](C4)C3)c2=O)cc1=O` [Compound U010, 2-(4-(4-((1R,1′R,3r,3R,5S,5′S)-[3,9′-bi(9′-azabicyclo[3.3.1]nonan)]-3′-yl)-3-oxo-3,4-dihydroquinoxalin-2-yl)-2-oxopyridin-1(2H)-yl)acetic acid] cannot be ordered by IC50: greater than 20 µM for the first, greater than 20 µM for the second.

`O=C(O)c1cc(-c2nc3ccccc3n([C@H]3C[C@H]4CCC[C@@H](C3)N4[C@@H]3C[C@@H]4CCCC[C@@H](C4)C3)c2=O)c[nH]c1=O` [Compound U043, 5-(4-((1R,3R,5S)-9-((1R,6S,8s)-bicyclo[4.3.1]decan-8-yl)-9-azabicyclo[3.3.1]nonan-3-yl)-3-oxo-3,4-dihydroquinoxalin-2-yl)-2-oxo-1,2-dihydropyridine-3-carboxylic acid] and `C[C@@H]1C[C@@H]2C[C@H](C1)C[C@@H](N1[C@@H]3CCC[C@H]1C[C@@H](n1c(=O)c(-c4c[nH]c(=O)c(C(=O)O)c4)nc4ccccc41)C3)C2` [Compound U064, 5-(4-((1R,1′R,3r,3′R,5S,5′S,7S)-7-methyl-[3,9′-bi(9′-azabicyclo[3.3.1]nonan)]-3′-yl)-3-oxo-3,4-dihydroquinoxalin-2-yl)-2-oxo-1,2-dihydropyridine-3-carboxylic acid] cannot be ordered by IC50: greater than 20 µM for the first, greater than 20 µM for the second.

`C[C@@H]1C[C@@H]2C[C@H](C1)C[C@@H](N1[C@@H]3CCC[C@H]1C[C@@H](n1c(=O)c(-c4c[nH]c(=O)cn4)nc4ccccc41)C3)C2` [Compound U052, 1-((1R,1′R,3r,3′R,5S,5′S,7S)-7-methyl-[3,9′-bi(9′-azabicyclo[3.3.1]nonan)]-3′-yl)-3-(5-oxo-4,5-dihydropyrazin-2-yl)quinoxalin-2(1H)-one] and `C[C@@H]1C[C@@H]2C[C@H](C1)C[C@@H](N1[C@@H]3CCC[C@H]1C[C@@H](n1c(=O)c(-c4ccc(=O)[nH]c4)nc4ccccc41)C3)C2` [Compound U060, 1-((1R,1′R,3r,3′R,5S,5′S,7S)-7-methyl-[3,9′-bi(9′-azabicyclo[3.3.1]nonan)]-3′-yl)-3-(6-oxo-1,6-dihydropyridin-3-yl)quinoxalin-2(1H)-one] cannot be ordered by IC50: greater than 20 µM for the first, greater than 20 µM for the second.

Going from `C[C@@H]1C[C@@H]2C[C@H](C1)C[C@@H](N1[C@@H]3CCC[C@H]1C[C@@H](n1c(=O)c(-c4c[nH]c(=O)c(C(N)=O)c4)nc4ccccc41)C3)C2` [Compound U063, 5-(4-((1R,1′R,3r,3′R,5S,5′S,7S)-7-methyl-[3,9′-bi(9′-azabicyclo[3.3.1]nonan)]-3′-yl)-3-oxo-3,4-dihydroquinoxalin-2-yl)-2-oxo-1,2-dihydropyridine-3-carboxamide] to `O=C(O)Cn1c(-c2nc3ccccc3n([C@H]3C[C@H]4CC[C@@H](C3)N4[C@H]3C[C@@H]4CCC[C@@H](C4)C3)c2=O)cccc1=O` [Q1a(iii), 2-(6-(4-((1R,3R,5S)-8-((1R,3r,5S)-bicyclo[3.3.1]nonan-3-yl)-8-azabicyclo[3.2.1]octan-3-yl)-3-oxo-3,4-dihydroquinoxalin-2-yl)-2-oxopyridin-1(2H)-yl)acetic acid], the IC50 rises from 7.2 µM to greater than 20 µM.

`Nc1ccn(-c2nc3ccccc3n([C@H]3C[C@H]4CC[C@@H](C3)N4[C@@H]3C[C@@H]4CCCC[C@@H](C4)C3)c2=O)c(=O)n1` [Compound U066, 3-(4-amino-2-oxopyrimidin-1(2H)-yl)-1-((1R,3R,5S)-8-((1R,6S,8s)-bicyclo[4.3.1]decan-8-yl)-8-azabicyclo[3.2.1]octan-3-yl)quinoxalin-2(1H)-one] and `O=C(O)Cn1c(-c2nc3ccccc3n([C@H]3C[C@H]4CC[C@@H](C3)N4[C@@H]3C[C@@H]4CCCC[C@@H](C4)C3)c2=O)cccc1=O` [DD1b(iii), 2-(6-(4-((1R,3R,5S)-8-((1R,6S,8s)-bicyclo[4.3.1]decan-8-yl)-8-azabicyclo[3.2.1]octan-3-yl)-3-oxo-3,4-dihydroquinoxalin-2-yl)-2-oxopyridin-1(2H)-yl)acetic acid] cannot be ordered by IC50: greater than 20 µM for the first, greater than 20 µM for the second.
